Where two headings read alike, the source gives them in different places.
Assays:
[1] = test system: human bone marrow-derived CD34+ osteoclast precursor cells; test: Osteoclast differentiation assay (secreted TRACP 5b at day 7); type: cell-based
Experimental: The study was performed in four parts. In the first part, human bone marrow-derived CD34+ osteoclast precursor cells were cultured on bovine bone slices for 7 days, after which the formed osteoclasts were quantitated by measuring tartrate-resistant acid phosphatase 5b activity (TRACP 5b) in the culture medium.
The objective of this study was to investigate the effects of Compound 1 selected by the Sponsor on differentiation and activity of human osteoclasts and mouse osteoblasts in vitro. The effects on osteoclasts were studied using a model where bone marrow-derived human osteoclast precursor cells are cultured on bovine bone slices for 7 days in conditions favouring osteoclast differentiation, and allowed to differentiate into bone-resorbing osteoclasts. After completion of osteoclast differentiation at day 7, the culture medium was removed and new culture medium favouring osteoclast activity was added into the wells. The mature osteoclasts were then cultured for an additional 3 days, allowing them to resorb bone. In the osteoclast differentiation assay, the test compounds and a reference inhibitor osteoprotegerin (OPG) were added into cultures at day 0. In the osteoclast activity assay, the test compounds and a reference inhibitor E64 were added into cultures at day 7. Seven concentrations in 8 replicates were tested in both assays. Tartrate-resistant acid phosphatase 5b activity (TRACP 5b) was measured from the culture medium collected at day 7 as an index of the number of osteoclasts formed in each well during the differentiation period. C-terminal cross-linked telopeptides of type I collagen (CTX) was measured from the culture medium collected at day 10 to quantitate bone resorption during days 7-10.
A human osteoclast culture system was developed for use in this study where CD34+ osteoclast precursor cells derived from human bone marrow (Poietics® Human Osteoclast Precursors, Lonza, Walkersville, USA) are cultured on bovine bone slices in the presence of appropriate growth factors, including M-CSF and RANK-ligand (Rissanen et al. 2009). The cells are first allowed to differentiate into mature bone-resorbing osteoclasts, and the formed osteoclasts are then allowed to resorb bone. The test and reference compounds are added into the cell cultures at the beginning of the differentiation and/or the resorption period, and their effects on the differentiation and/or resorbing activity of osteoclasts are determined.
Secreted TRACP 5b is determined from the culture medium after the differentiation period using a commercially available method (BoneTRAPÒ, IDS Ltd, Boldon, UK). Secreted TRACP 5b describes accurately the number of osteoclasts formed in each well during the differentiation period. CTX is determined from the culture medium after the resorption period using a commercially available method (CrossLapsÒ for cultures, IDS Ltd, Boldon, UK). CTX describes accurately the amount of bone collagen degradation products released into the culture medium in each well during the resorption period.
In this study, human bone marrow-derived CD34+ stem cells (10000 cells/well) were suspended in culture medium and allowed to attach to bovine bone slices in 96-well tissue culture plates. The culture medium (containing 10% FBS, OCP BulletKit® Lonza, Walkersville, USA) was supplemented with appropriate amounts of important growth factors favoring osteoclast differentiation and activity, including M-CSF (33 ng/ml, OCP BulletKit® Lonza, Walkersville, USA) and RANK-ligand (66 ng/ml, OCP BulletKit® Lonza, Walkersville, USA) in 200 μl of medium. The cells were incubated in a CO2 incubator in humidified atmosphere of 95% air and 5% carbon dioxide at 37° C. for 7 days. The test compounds and reference compound OPG were added at day 0. Supernatants collected at day 7 were stored at −70° C. until analysis of TRACP 5b. TRACP 5b was measured from the culture medium (20 μl/sample) using VICTOR2™ Multilabel Counter (PerkinElmer, Waltham, Mass., USA). […]

[2] = test system: KS483 mouse osteoprogenitor cells; test: Osteoblast activity assay (PINP at day 11, calcium deposition at day 13); type: cell-based; conditions: for activity at 0.004 µM / activity at 0.012 µM / activity at 0.037 µM / activity at 0.11 µM / activity at 0.33 µM / activity at 1 µM / activity at 3 µM: Mus musculus, Osteoblast; for activity at 0.004 µM: 0.004 μM Compound 1; for activity at 0.012 µM: 0.012 μM Compound 1; for activity at 0.037 µM: 0.037 μM Compound 1; for activity at 0.11 µM: 0.11 μM Compound 1; for activity at 0.33 µM: 0.33 μM Compound 1; for activity at 1 µM: 1.0 μM Compound 1; for activity at 3 µM: 3.0 μM Compound 1
Experimental: The effects on osteoblasts were studied using KS483 mouse osteoprogenitor cells that can be induced to differentiate into bone-forming osteoblasts. […] In the osteoblast differentiation assay, the cells were cultured for 8 days, after which the formed mature osteoblasts were quantitated by measuring the amount of intracellular alkaline phosphatase (ALP) activity. […] A culture system was established that can be used as an in vitro model for studying the effects of anabolic and estrogen-like compounds on osteoblast differentiation and activity. In this culture system mouse KS483 cells first proliferate and then differentiate into osteoblasts capable of forming mineralized bone nodules in the presence of ascorbic acid and ß-glycerophosphate (Fagerlund et al. 2009). The test and reference compounds are added into the cell cultures concomitantly with the medium change, and their effects on the differentiation and activity of osteoblasts are determined. Cellular ALP, a marker of osteoblast differentiation, is determined from the cell lysates as described earlier (Lowry et al. 1954). Secreted PINP, a marker of organic bone matrix formation, is determined from the culture medium using a commercially available method (Rat/Mouse PINP EIA, IDS Ltd, Boldon, UK). Calcium deposition, an index of inorganic bone matrix formation, is measured using a commercially available calcium assay (Roche Diagnostics). Mouse KS483 cells were cultured in T-75 tissue culture flasks in aMEM supplemented with 10% charcoal-stripped fetal bovine serum until 80-90% confluence. The cells were incubated in a CO2 incubator in humidified atmosphere of 95% air and 5% carbon dioxide at 37° C. After reaching 80-90% confluence, subcultures were prepared. Cells were removed from the flasks with trypsin treatment and counted. For induction of the maturation of osteoblasts and bone formation, the immature osteoblastic cells were plated in type I collagen-coated 96-well plates. The cells were cultured for 13 days with a supplement of ascorbic acid (50 μg/ml) and ß-glycerophosphate (5 mM), and half of the media was changed every 3-4 days. The test compound and control substance (E2) were added in the beginning of the culture period and when the medium was changed. Secreted PINP was measured from the culture medium at day 11 as a marker of organic bone matrix formation. The cultures were stopped at day 13 by removing the culture media from the wells and adding hydrochloric acid. Calcium deposited into the formed bone matrix was quantitated by using VICTOR2™ Multilabel Counter (PerkinElmer, Waltham, Mass., USA).

[3] = 0.004, 0.012, 0.037 and 0.11 μM
[4] = 264 h, read-out: PINP Activity at Day 11, Percent Activity (%) Compared to BL
[5] = 312 h, read-out: Calcium Deposition at Day 13, Percent Activity (%) Compared to BL

COc1cc2nccc(Oc3ccc(NC(=O)C4(C(=O)Nc5ccc(F)cc5)CC4)cc3)c2cc1OC [Compound 1, N-(4-{[6,7-bis(methyloxy)quinolin-4-yl]oxy}phenyl)-N′-(4-fluorophenyl)cyclopropane-1,1-dicarboxamide] was tested. Which “number of Hoechst and TRACP positive mononuclear cells (microscopic analysis)” value ([1]; 0.11 and 0.33 μM) did it give?
The value was “did not affect”.

What about the “number of Hoechst and TRACP positive mononuclear cells (microscopic analysis)” value ([1]; 1.0 and 3.0 μM, effects at least partly cytotoxic) of the same compound?
The value was “decreased”.

What about the activity at 0.004 µM ([1]; Homo sapiens, Osteoclast, 168 h, 0.004 μM Compound 1, read-out: TRACP 5b Activity at Day 7, Percent Activity (%) Compared to BL) of the same compound?
Its activity at 0.004 µM is 85%.

What about the activity at 0.012 µM ([1]; Homo sapiens, Osteoclast, 168 h, 0.012 μM Compound 1, read-out: TRACP 5b Activity at Day 7, Percent Activity (%) Compared to BL) of the same compound?
The activity at 0.012 µM was 80%.

What about the activity at 0.037 µM ([1]; Homo sapiens, Osteoclast, 168 h, 0.037 μM Compound 1, read-out: TRACP 5b Activity at Day 7, Percent Activity (%) Compared to BL) of the same compound?
Its activity at 0.037 µM is 74%.

And the activity at 0.11 µM ([1]; Homo sapiens, Osteoclast, 168 h, 0.11 μM Compound 1, read-out: TRACP 5b Activity at Day 7, Percent Activity (%) Compared to BL)?
Its activity at 0.11 µM is 45%.

What about the activity at 0.33 µM ([1]; Homo sapiens, Osteoclast, 168 h, 0.33 μM Compound 1, read-out: TRACP 5b Activity at Day 7, Percent Activity (%) Compared to BL) of the same compound?
The activity at 0.33 µM was 15%.

What about the activity at 1 µM ([1]; Homo sapiens, Osteoclast, 168 h, 1.0 μM Compound 1, read-out: TRACP 5b Activity at Day 7, Percent Activity (%) Compared to BL) of the same compound?
The activity at 1 µM was 4%.

And the activity at 3 µM ([1]; Homo sapiens, Osteoclast, 168 h, 3.0 μM Compound 1, read-out: TRACP 5b Activity at Day 7, Percent Activity (%) Compared to BL)?
Its activity at 3 µM is 0%.

What about the “effect on osteoclast differentiation” value ([1]; significant with 0.11, 0.33, 1.0 and 3.0 μM concentrations) of the same compound?
Its value is “dose-dependent inhibition”.

And the “bone forming activity of osteoblasts” value [2, 3]?
Its value is “dose-dependent stimulation”.

What about the calcium values [2, 3] of the same compound?
The calcium values was “increased”.

And the PINP values ([2]; 0.012 and 0.037 μM)?
The PINP values was “increased”.

What about the PINP values ([2]; 0.33, 1.0 and 3.0 μM) of the same compound?
The PINP values was “decreased”.

And the “bone forming activity of osteoblasts” value ([2]; 0.33, 1.0 and 3.0 μM)?
Its value is “inhibitory effects”.

And the calcium values ([2]; 0.33, 1.0 and 3.0 μM)?
Its calcium values is “decreased”.

What about the activity at 0.004 µM [2, 4] of the same compound?
The activity at 0.004 µM was 117%.

And the activity at 0.012 µM [2, 4]?
Its activity at 0.012 µM is 122%.

What about the activity at 0.037 µM [2, 4] of the same compound?
Its activity at 0.037 µM is 135%.

And the activity at 0.11 µM [2, 4]?
The activity at 0.11 µM was 101%.

What about the activity at 0.33 µM [2, 4] of the same compound?
The activity at 0.33 µM was 73%.

What about the activity at 1 µM [2, 4] of the same compound?
Its activity at 1 µM is 42%.

What about the activity at 3 µM [2, 4] of the same compound?
The activity at 3 µM was 21%.

What about the activity at 0.004 µM [2, 5] of the same compound?
The activity at 0.004 µM was 145%.

What about the activity at 0.012 µM [2, 5] of the same compound?
The activity at 0.012 µM was 167%.

And the activity at 0.037 µM [2, 5]?
The activity at 0.037 µM was 180%.

What about the activity at 0.11 µM [2, 5] of the same compound?
The activity at 0.11 µM was 144%.

What about the activity at 0.33 µM [2, 5] of the same compound?
The activity at 0.33 µM was 59%.

And the activity at 1 µM [2, 5]?
Its activity at 1 µM is 12%.

What about the activity at 3 µM [2, 5] of the same compound?
Its activity at 3 µM is 4%.

Reference: US10166225B2, “Method for treating osteoporosis” (Exelixis, Inc., priority 2011, dated 2019)
